Assay results from US11058699B2, “Method and compositions for inhibition of double stranded DNA viruses” (WISCONSIN ALUMNI RESEARCH FOUNDATION, priority 2008, dated 2021).
Entries after “also recorded” stand apart in the source; their conditions may differ.

Assays:
wild type HPV16 = test: Wild type HPV16 infection of 293T cells, early gene expression by qRT-PCR; type: cell-based; conditions: 4 hours pre-treatment with 3 μM, 48 hours, compared with neutralizing antibody H16.7E
hpv16wpA-RL = type: cell-based, HPV16; conditions: 293T cells, 24 hour synchronization with aphidicolin, 4 hour treatment 3 μM, 48 hours
[1] = tested on: HPV pseudovirions hpvSEAP; test: hpvSEAP pseudovirion infectivity assay (SEAP) in 293T cells; type: cell-based, HPV16
Method: FIG. 6. Early M phase arrest by CDK1 inhibition interferes with HPV infection. (FIG. 6A) 293T cells were treated with a CDK1 inhibitor, purvalanol A (3, 6, and 12 μM) and infected with hpvSEAP. […] The columns represent the mean, the bars represent the standard deviation. (FIG. 6B) Cell cycle arrest at M phase by purvalanol A (12 μM) is shown. Histograms indicate the cell cycle status of DMSO and purvalanol A-treated cells, respectively.
Cell cycle inhibitors block HPV infection. To identify mechanistic pathways and informative modulators of HPV infection, we tested nearly 5,000 compounds in known bioactive molecule libraries Prestwick (Prestwick Chemicals) and LOPAC (Library of Pharmacologically Active Compounds, Sigma), with HPV pseudovirions containing an SV40 promoter-driven secreted alkaline phosphatase (SEAP) reporter gene (hpvSEAP). […] Total RNA was extracted after 48 hours, and expression levels of HPV16 E1 ^E4 RNA transcripts were measured by qRT-PCR using E7, E2, and E5 sequence specific primers.
High throughput screening.
Infectivity assay. […] Infectivity of wild type HPV16 virions was examined by quantitative reverse transcriptase PCR (qRT-PCR) by amplifying viral mRNA signals from HPV16-treated 293TT cells. 293TT cells were infected with 50-100 vge/cell of packaged virus and incubated for 48 hours at 37° C.

[2] = tested on: influenza virus vector expressing RL; type: cell-based
β-actin expression = test: Cellular β-actin expression by qRT-PCR in 293T cells; type: cell-based, human; conditions: 3 μM, 48 hours
HaCaT cells = test: CellTiter-Glo Luminescent cell viability assay in HaCaT cells; conditions: 3 μM, 48 hours
Method: The reporter RL activity (FIG. 1A) and cell viability (FIG. 1B) were measured by Renilla Luciferase Assay System (Promega) and CellTiter-Glo Luminescent cell viability assay (Promega), respectively. Human keratinocyte HaCaT cells were inoculated with HPV16 LCR-driven RL containing pseudovirions hpv16wpA-RL after 4 hours of pre-treatment with 3 μM of each compound, and reporter expression/cell viability were scored 48 hours later. The expression value is shown as viability to untreated cells with hpv16wpA-RL.

[3] = 293 cells, HPV16 pseudoviruses expressing SEAP or Renilla luciferase, or intact infectious HPV16 (early gene expression)

SMILES	HPV16 gene expression (wild type HPV16 virion infection) (wild type HPV16)	HPV infection (RL activity) (hpv16wpA-RL)	inhibition of HPV infection [1, 3]	inhibition of HPV infection ([1]; 293 cells, HPV16 pseudoviruses expressing SEAP or Renilla luciferase, or intact infectious HPV16 (early gene expression), listed as etopside)	influenza infection (RL activity) [2]	cellular β-actin expression (β-actin expression)	effect on cell viability (HaCaT cells)	inhibition of HPV infection ([1]; 293T cells, 12 μM, hpvSEAP, 48 hours)	inhibition of HPV infection, dose dependence ([1]; 293T cells, 3, 6 and 12 μM, SEAP after 48 hours)
COc1cc([C@@H]2c3cc4c(cc3[C@@H](O[C@@H]3O[C@@H]5CO[C@@H](C)O[C@H]5[C@H](O)[C@H]3O)[C@H]3COC(=O)[C@H]23)OCO4)cc(OC)c1O [etoposide]	blocked HPV16 gene expression even more efficiently than a neutralizing antibody	efficiently blocked	most significant and consistent inhibition	significantly and consistently inhibit	did not significantly affect	no effect; also recorded: not affected			
O=c1[nH]cc(F)c(=O)[nH]1 [5-fluorouracil]							did not have any effect		
C[C@@]1(CO)[C@H](O)CC[C@@]2(C)[C@H]1CC[C@H]1C[C@@H]3C[C@@]12CC[C@]3(O)CO [aphidicolin]	blocked HPV16 gene expression even more efficiently than a neutralizing antibody	efficiently blocked	significantly and consistently inhibit; also recorded: most significant and consistent inhibition		did not significantly affect	no effect; also recorded: not affected			
CC(C)[C@H](CO)Nc1nc(Nc2cccc(Cl)c2)c2ncn(C(C)C)c2n1 [Purvalanol A, purvalanol A]								about 5 fold	inhibited HPV infection dose-specifically
